Source: ChEMBL document CHEMBL3526052 (Drug Metab Dispos, 2013)

Assays:
[1] = target: T1, Equilibrative nucleoside transporter 1 (Homo sapiens, UniProt Q99808); assay: Drug transport in human CCRF-CEM cells assessed as ENT1-mediated uptake measured per 10^6 cells after 5 secs by Michaelis-Menten equation analysis; format: ADME, cell-based; details: 5 s
T1 sequence (Q99808 whole entry): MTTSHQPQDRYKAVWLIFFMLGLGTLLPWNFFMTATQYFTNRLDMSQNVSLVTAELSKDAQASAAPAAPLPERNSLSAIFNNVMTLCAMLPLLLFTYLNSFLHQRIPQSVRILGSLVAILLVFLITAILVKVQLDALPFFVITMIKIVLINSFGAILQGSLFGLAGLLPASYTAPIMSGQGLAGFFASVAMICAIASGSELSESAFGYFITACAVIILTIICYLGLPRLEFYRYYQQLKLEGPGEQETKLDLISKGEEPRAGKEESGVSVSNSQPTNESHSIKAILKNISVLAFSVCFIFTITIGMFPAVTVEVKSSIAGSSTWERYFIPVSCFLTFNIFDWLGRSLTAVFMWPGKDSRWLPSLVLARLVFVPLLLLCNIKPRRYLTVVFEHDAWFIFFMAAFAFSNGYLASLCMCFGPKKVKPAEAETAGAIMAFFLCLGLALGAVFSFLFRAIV

[2] = target: T2, ENT1 (equilibrative nucleoside transporter 1) (Homo sapiens, UniProt Q99808); assay: Drug transport in Xenopus laevis oocytes assessed as recombinant human ENT1-mediated uptake up to 1 mM by Michaelis-Menten equation analysis; format: ADME, cell-based; details: Xenopus laevis oocytes expressing recombinant human ENT1, read-out: Km(app)
T2 sequence (Q99808 whole entry): T1 sequence (Q99808 whole entry)

[3] = Tmax in CD-1 mouse brain at 0.1 mg/kg, iv administered as bolus dose in presence of ENT1 inhibitor NBMPR-P; format: ADME, organism-based; parameters: dose 0.1 mg/kg, route intravenous
Brain [4] = assay: AUC (0 to 4 hrs) in CD-1 mouse brain at 0.1 mg/kg, iv administered as bolus dose in presence of ENT1 inhibitor NBMPR-P; format: ADME, organism-based; parameters: time < 4 hr, dose 0.1 mg/kg, route intravenous; details: in vivo
[5] = target: T3, Equilibrative nucleoside transporter 2 (Homo sapiens, UniProt Q14542); assay: Binding affinity to recombinant human ENT2 expressed in Saccharomyces cerevisiae assessed as inhibition of [3H]-uridine transport after 15 mins by scintillation counting analysis; format: ADME; details: for Ki: read-out: Ki(app)
T3 sequence (Q14542 whole entry): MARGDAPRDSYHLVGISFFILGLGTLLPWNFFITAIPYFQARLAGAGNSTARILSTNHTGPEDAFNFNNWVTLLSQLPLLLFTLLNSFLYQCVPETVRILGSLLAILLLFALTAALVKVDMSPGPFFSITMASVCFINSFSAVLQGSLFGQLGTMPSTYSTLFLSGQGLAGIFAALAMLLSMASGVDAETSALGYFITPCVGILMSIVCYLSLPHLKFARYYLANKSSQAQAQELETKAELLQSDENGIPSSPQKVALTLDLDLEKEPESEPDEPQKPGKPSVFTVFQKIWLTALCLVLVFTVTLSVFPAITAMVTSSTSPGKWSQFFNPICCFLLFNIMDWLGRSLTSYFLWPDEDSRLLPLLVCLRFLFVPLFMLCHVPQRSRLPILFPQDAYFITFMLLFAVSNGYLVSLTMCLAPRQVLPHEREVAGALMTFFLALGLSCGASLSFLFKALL

[6] = target: T4, Sodium/nucleoside cotransporter 2 (Homo sapiens, UniProt O43868); assay: Binding affinity to recombinant human CNT2 expressed in Saccharomyces cerevisiae assessed as inhibition of [3H]-uridine transport after 15 mins by scintillation counting analysis; format: ADME; details: for Ki: read-out: Ki(app)
T4 sequence (O43868 whole entry): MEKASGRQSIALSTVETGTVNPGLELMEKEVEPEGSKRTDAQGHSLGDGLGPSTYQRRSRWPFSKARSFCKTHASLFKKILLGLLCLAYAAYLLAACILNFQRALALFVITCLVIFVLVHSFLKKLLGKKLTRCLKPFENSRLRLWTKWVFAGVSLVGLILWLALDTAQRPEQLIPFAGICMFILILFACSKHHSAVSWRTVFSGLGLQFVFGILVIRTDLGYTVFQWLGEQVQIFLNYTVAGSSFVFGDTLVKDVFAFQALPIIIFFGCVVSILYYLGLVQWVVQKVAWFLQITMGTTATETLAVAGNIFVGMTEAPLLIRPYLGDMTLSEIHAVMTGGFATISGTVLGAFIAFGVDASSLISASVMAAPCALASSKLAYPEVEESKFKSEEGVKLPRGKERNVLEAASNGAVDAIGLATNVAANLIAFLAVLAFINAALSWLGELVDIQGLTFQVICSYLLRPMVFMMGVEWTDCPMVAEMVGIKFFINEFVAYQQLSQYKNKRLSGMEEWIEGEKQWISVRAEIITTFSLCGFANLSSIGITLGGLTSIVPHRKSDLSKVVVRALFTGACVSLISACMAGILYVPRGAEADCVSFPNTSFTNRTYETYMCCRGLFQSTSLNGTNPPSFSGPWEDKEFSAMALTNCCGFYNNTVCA

[7] = target: T5, Solute carrier family 28 member 3 (Homo sapiens, UniProt Q9HAS3); assay: Binding affinity to recombinant human CNT3 expressed in Saccharomyces cerevisiae assessed as inhibition of [3H]-uridine transport after 5 mins by scintillation counting analysis; format: ADME; details: for Ki: read-out: Ki(app)
T5 sequence (Q9HAS3 whole entry): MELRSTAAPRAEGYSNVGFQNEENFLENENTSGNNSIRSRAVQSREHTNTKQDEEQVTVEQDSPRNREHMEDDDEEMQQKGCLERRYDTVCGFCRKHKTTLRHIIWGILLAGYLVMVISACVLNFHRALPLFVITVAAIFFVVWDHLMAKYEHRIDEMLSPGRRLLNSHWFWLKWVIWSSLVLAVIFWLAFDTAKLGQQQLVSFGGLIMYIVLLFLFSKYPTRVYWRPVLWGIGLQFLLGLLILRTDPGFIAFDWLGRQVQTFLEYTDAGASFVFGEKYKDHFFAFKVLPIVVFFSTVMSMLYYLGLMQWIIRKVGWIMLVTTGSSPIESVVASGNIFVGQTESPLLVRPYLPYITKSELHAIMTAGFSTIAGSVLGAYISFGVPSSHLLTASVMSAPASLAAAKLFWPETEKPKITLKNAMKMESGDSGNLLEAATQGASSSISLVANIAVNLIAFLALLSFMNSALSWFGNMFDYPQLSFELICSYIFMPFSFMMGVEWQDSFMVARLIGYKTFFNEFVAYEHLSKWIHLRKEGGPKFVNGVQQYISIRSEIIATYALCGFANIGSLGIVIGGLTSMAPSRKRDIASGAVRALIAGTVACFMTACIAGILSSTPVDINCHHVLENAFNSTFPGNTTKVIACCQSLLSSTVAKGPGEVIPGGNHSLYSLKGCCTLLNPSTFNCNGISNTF

[8] = Cmax in CD-1 mouse brain at 0.1 mg/kg, iv administered as bolus dose in absence of ENT1 inhibitor NBMPR-P; format: ADME, organism-based; parameters: dose 0.1 mg/kg, route intravenous
[9] = Apparent volume of distribution at steady state in CD-1 mouse at 0.1 mg/kg, iv administered as bolus dose in absence of ENT1 inhibitor NBMPR-P; format: ADME, organism-based; parameters: dose 0.1 mg/kg, route intravenous; details: in vivo, read-out: Vdss(app)
[10] = Elimination half life in CD-1 mouse at 0.1 mg/kg, iv administered as bolus dose in absence of ENT1 inhibitor NBMPR-P; format: ADME, organism-based; parameters: dose 0.1 mg/kg, route intravenous; details: in vivo, read-out: beta t1/2 (converted)
[11] = AUC (0 to infinity) in CD-1 mouse at 0.1 mg/kg, iv administered as bolus dose in presence of ENT1 inhibitor NBMPR-P; format: ADME, organism-based; parameters: time infinity, dose 0.1 mg/kg, route intravenous; details: plasma
[12] = target: T2, ENT1 (equilibrative nucleoside transporter 1); assay: Drug transport in human CCRF-CEM cells assessed as ENT1-mediated uptake after 5 secs by Michaelis-Menten equation analysis; format: ADME, cell-based
[13] = Apparent volume of distribution at steady state in CD-1 mouse at 0.1 mg/kg, iv administered as bolus dose in presence of ENT1 inhibitor NBMPR-P; format: ADME, organism-based; parameters: dose 0.1 mg/kg, route intravenous; details: in vivo, read-out: Vdss(app)
[14] = target: T1, Equilibrative nucleoside transporter 1; assay: Binding affinity to recombinant human ENT1 expressed in Saccharomyces cerevisiae assessed as inhibition of [3H]-uridine transport after 15 mins by scintillation counting analysis; format: ADME; details: for Ki: read-out: Ki(app)
Xenopus laevis = species: Xenopus laevis; assay: Drug uptake in water-injected Xenopus laevis oocytes up to 1 mM measured per 2 mins; format: ADME, organism-based; details: in vivo
[15] = Tmax in CD-1 mouse brain at 0.1 mg/kg, iv administered as bolus dose in absence of ENT1 inhibitor NBMPR-P; format: ADME, organism-based; parameters: dose 0.1 mg/kg, route intravenous
[16] = Elimination half life in CD-1 mouse at 0.1 mg/kg, iv administered as bolus dose in presence of ENT1 inhibitor NBMPR-P; format: ADME, organism-based; parameters: dose 0.1 mg/kg, route intravenous; details: in vivo, read-out: beta t1/2 (converted)
Brain [17] = assay: AUC (0 to 4 hrs) in CD-1 mouse brain at 0.1 mg/kg, iv administered as bolus dose in absence of ENT1 inhibitor NBMPR-P; format: ADME, organism-based; parameters: time < 4 hr, dose 0.1 mg/kg, route intravenous; details: in vivo
[18] = AUC (0 to infinity) in CD-1 mouse at 0.1 mg/kg, iv administered as bolus dose in absence of ENT1 inhibitor NBMPR-P; format: ADME, organism-based; parameters: time infinity, dose 0.1 mg/kg, route intravenous; details: plasma
[19] = target: T1, Equilibrative nucleoside transporter 1; assay: Drug transport in Xenopus laevis oocytes assessed as recombinant human ENT1-mediated uptake up to 1 mM measured per 2 mins by Michaelis-Menten equation analysis; format: ADME, cell-based
[20] = Cmax in CD-1 mouse brain at 0.1 mg/kg, iv administered as bolus dose in presence of ENT1 inhibitor NBMPR-P; format: ADME, organism-based; parameters: dose 0.1 mg/kg, route intravenous
[21] = target: T6, Sodium/nucleoside cotransporter 1 (Homo sapiens, UniProt O00337); assay: Binding affinity to recombinant human CNT1 expressed in Saccharomyces cerevisiae assessed as inhibition of [3H]-uridine transport after 15 mins by scintillation counting analysis; format: ADME; details: for Ki: read-out: Ki(app)
T6 sequence (O00337 whole entry): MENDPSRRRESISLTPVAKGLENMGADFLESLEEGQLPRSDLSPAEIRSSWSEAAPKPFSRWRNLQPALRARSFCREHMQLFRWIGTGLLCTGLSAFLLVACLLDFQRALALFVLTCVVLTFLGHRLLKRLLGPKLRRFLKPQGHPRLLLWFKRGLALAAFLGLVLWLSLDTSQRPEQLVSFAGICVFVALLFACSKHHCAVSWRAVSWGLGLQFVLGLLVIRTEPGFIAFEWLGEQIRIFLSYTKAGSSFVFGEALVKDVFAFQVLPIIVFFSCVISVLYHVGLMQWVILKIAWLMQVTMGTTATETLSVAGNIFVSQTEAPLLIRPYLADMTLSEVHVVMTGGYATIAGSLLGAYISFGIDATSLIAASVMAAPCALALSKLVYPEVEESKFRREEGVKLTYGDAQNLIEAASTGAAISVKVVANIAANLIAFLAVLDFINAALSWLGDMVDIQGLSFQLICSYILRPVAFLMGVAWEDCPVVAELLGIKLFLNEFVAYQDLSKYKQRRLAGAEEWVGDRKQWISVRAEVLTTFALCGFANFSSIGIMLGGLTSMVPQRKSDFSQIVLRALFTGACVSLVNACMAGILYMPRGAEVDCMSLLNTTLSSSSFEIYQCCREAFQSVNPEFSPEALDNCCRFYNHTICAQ

With `OC[C@H]1O[C@@H](n2cnc3c(N[C@@H]4CCOC4)ncnc32)[C@H](O)[C@@H]1O` [TECADENOSON] the Vmax [1] was 3.4 pmol, the Km [2] was 196 µM and the Tmax [3] was 11.4 min. For the same compound, the AUC (Brain [4]) was 7 ng·h/g, the IC50 [5] was 190 µM and the Ki [5] was 189 µM. The IC50 [6] was 239 µM, the Ki [6] was 231 µM and the IC50 [7] was 200 µM. The Ki [7] was 126 µM, the Cmax [8] was 23 ng/g and the Vd [9] was 2.8 L/kg. It also gave a half-life [10] of 42 min, an AUC(0-inf) [11] of 50.5 ng·h/mL and a Km at 5 s [12] of 24 µM. It also gave a Vd [13] of 2.2 L/kg, an IC50 [14] of 12 µM and a Ki [14] of 11 µM. It also gave a Drug uptake (Xenopus laevis) of 5 pmol, a Tmax [15] of 6.6 min and a half-life [16] of 66 min. The AUC (Brain [17]) was 22 ng·h/g, the AUC(0-inf) [18] was 16.4 ng·h/mL and the Vmax [19] was 46.7 pmol. The Cmax [20] was 4 ng/g, the IC50 [21] was 41 µM and the Ki [21] was 37 µM.

With `O=c1ccn([C@@H]2O[C@H](CO)[C@@H](O)[C@H]2O)c(=O)[nH]1` [URIDINE] the IC50 [5] was 234 µM, the Ki [5] was 242 µM and the IC50 [6] was 32 µM. For the same compound, the Ki [6] was 31 µM, the IC50 [7] was 5.4 µM and the Ki [7] was 3.4 µM. The IC50 [14] was 52 µM, the Ki [14] was 51 µM and the IC50 [21] was 5.8 µM. For the same compound, the Ki [21] was 5.2 µM.
